Data as given in patent publication US20170274006A1, “NASAL COMPOSITION COMPRISING MIXTURE OF HYALURONIC ACIDS AND SALINE SOLUTION” (SOFIBEL, priority 2014, published 2017).

Test system: HRV-A16
Assay: Anti-viral effect: inhibition of HRV-A16 replication on human airway epithelial cell culture
Type: cell-based, rhinovirus
Conditions: applied one hour before infection; change in viral RNA
Experimental: The example 1 composition is tested according to the test of evaluation of the potential activity against HRV-A16 (a rhinovirus responsible for colds) on fully differentiated human airway epithelial cells culture. The compositions are first applied before infection for one hour and the replication is carried out for 4 hours. 3 rinsing steps with the formulations are carried out. The remaining is collected and the RNA is dosed after cell lysis. The same collecting step is carried out 24 hours after and the same dosing step is carried out. The percentage expressed the changes in viral RNA, resulting in the % of inhibition of HRV-A16 replication, leading to the anti-viral efficacy. The tested composition is tested against rupintrivir (a known antiviral compound, providing an almost complete response).

Q: How did the “Inhibition (%) of HRV-A16 replication” value turn out when `CCOC(=O)/C=C/[C@H](C[C@@H]1CCNC1=O)NC(=O)[C@@H](CC(=O)[C@@H](NC(=O)c1cc(C)on1)C(C)C)Cc1ccc(F)cc1` [Rupintrivir] was run?
A: 99.62%
